In brackets after ≈: the same amount, converted by molar mass.
System: C.albicans cells
Experiment: Effective inhibitory concentrations for C.albicans cells grown in YPD medium
Format: cell-based, Candida albicans
Details: C.albicans cells grown in YPD medium at 30° C.

## CN[C@@H]1[C@@H](O)[C@@H](O[C@@H]2[C@@H](O)[C@H](O[C@H]3O[C@H]([C@@H](C)O)[C@@H](O)[C@H](O)[C@H]3N)[C@@H](N)C[C@H]2N)OC[C@]1(C)O [G418]
  IC50 (effective inhibitory concentration): 11 µg/mL (≈ 22.2 µM)
  IC90 (effective inhibitory concentration): 39 µg/mL (≈ 78.5 µM)

Reference: US6878531B1, “Method for multiple site-directed mutagenesis” (Medical College of Georgia Research Institute, priority 2003, dated 2005)
